These results are taken from US7557133B2, “Caspase inhibitors containing isoxazoline ring” (LG Life Sciences Ltd., priority 2003, dated 2009).

In one assay the target is T1, caspase-8 (Homo sapiens, UniProt Q14790).
T1 construct: p10 and p20 subunits (Thornberry, N. A. et al, Nature, 1992, 356, 768) were expressed in E. coli; made in house; host or cells: E. coli
In words: Caspase-8 inhibitory effect (fluorescent substrate AcDEVD-AFC). The assay is classed as biochemical. Particulars: pH 7.5; 25° C., 50 μM AcDEVD-AFC, 2.1 nM caspase-8; read-out: Caspase-8 Kobs/[I] (converted). Here is the method:
(§1) Caspase-1 and caspase-8 known as cysteine proteases in the form of α2β2 were expressed, purified, and activated by modifying a method known in Thornberry, N. A. et al, Nature, 1992, 356, 768. Thornberry, N. A. Methods in Enzymology, 1994, 244, 615. Walker, N. P. C. et al. Cell, 1994, 78, 343, and caspase-9 was also purified by a similar method, and the inhibitory activity against them was tested. Briefly describing, p10 and p20 subunits (Thornberry, N. A. et al, Nature, 1992, 356, 768) were expressed in E. coli and purified by nickel column and anionic exchange chromatography to give caspase-1, caspase-8 and caspase-9. The fluorescent substrate AcYVAD-AFC for thus obtained caspase-1, AcDEVD-AFC for caspase-8, and AcLEHD-AFC for caspase-9 were used for determining specific activity of the synthesized inhibitors. The enzyme reaction was carried out at 25° C. with various concentrations of the inhibitors in a buffer solution containing 50 mM HEPES(pH 7.50), 10% (w/v) sucrose, 0.1% (w/v) CHAPS, 100 mM NaCl, 1 mM EDTA, and 10 mM DTT in the presence of 50 μM AcYVAD-AFC for 10 nM caspase-1, 50 μM AcDEVD-AFC for 2.1 nM caspase-8, and 150 μM AcLEHD-AFC for 200 nM caspase-9. The inhibitory constants Ki and Kobs of the inhibitors were determined by measuring the reaction velocity with the time lapse using a fluorescent spectrometer and by obtaining the initial rate constant. Ki was calculated from the Lineweaver Burk Plot, and Kobs from the following Equation 1. Kobs=−ln(1−At/Aoo)/t Equation 1
(§2) At means cleavate rate (%) at time t, and
(§3) Aoo means the maximum cleavage rate (%).
(§4) Spectra MAX GeminiXS Fluorescent Spectrometer of Molecular Device Co. was used at the excitation wavelength of 405 nm and the emission wavelength of […].

Assay [1] has as its system Jurkat cell (ATCC TIB-152). The experiment in a line: Jurkat cell apoptosis by Fas antibody, WST-1 method. Particulars: Homo sapiens, Jurkat, apoptosis using Fas antibody, WST-1. The assay is classed as cell-based. Here is the method:
The […] inhibitory activity of the inhibitors was determined by subjecting Jurkat cell (ATCC TIB-152) to apoptosis using Fas antibody (Upstate Biotech 05-201) and by detecting the color change according to the WST-1 method known in Francoeur A. M. and Assalian A. (1996) Biochemica 3, 19-25 to observe the amount of alive Jurkat cells when the cells were treated by the inhibitor. Spectra MAX 340 Spectrometer of Molecular Device Co. was used at the absorbance wavelength of 440 nm.

The target of another assay is T2, caspase-1 (Homo sapiens, UniProt P29466).
T2 construct: p10 and p20 subunits (Thornberry, N. A. et al, Nature, 1992, 356, 768) were expressed in E. coli; made in house; host or cells: E. coli
T2 sequence (P29466 120-297 limits assumed): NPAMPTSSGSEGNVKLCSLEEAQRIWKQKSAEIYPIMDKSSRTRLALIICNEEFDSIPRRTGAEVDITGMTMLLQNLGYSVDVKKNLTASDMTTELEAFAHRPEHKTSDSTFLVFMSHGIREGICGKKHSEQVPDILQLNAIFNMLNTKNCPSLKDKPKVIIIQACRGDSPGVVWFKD
T2 sequence (P29466 317-404 limits assumed): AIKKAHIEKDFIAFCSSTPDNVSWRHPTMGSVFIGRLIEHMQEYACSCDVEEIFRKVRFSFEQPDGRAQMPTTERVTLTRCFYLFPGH
The experiment in a line: Caspase-1 inhibitory effect (fluorescent substrate AcYVAD-AFC). As to conditions: pH 7.5; 25° C., 50 μM AcYVAD-AFC, 10 nM caspase-1; read-out: Caspase-1 Kobs/[I] (converted). The assay is classed as biochemical. The procedure: as §1, §2, §3, §4

The target of a further assay is T3, caspase-9 (Homo sapiens, UniProt P55211).
T3 construct: p10 and p20 subunits (Thornberry, N. A. et al, Nature, 1992, 356, 768) were expressed in E. coli; made in house; host or cells: E. coli
T3 sequence (P55211 1-315 limits assumed): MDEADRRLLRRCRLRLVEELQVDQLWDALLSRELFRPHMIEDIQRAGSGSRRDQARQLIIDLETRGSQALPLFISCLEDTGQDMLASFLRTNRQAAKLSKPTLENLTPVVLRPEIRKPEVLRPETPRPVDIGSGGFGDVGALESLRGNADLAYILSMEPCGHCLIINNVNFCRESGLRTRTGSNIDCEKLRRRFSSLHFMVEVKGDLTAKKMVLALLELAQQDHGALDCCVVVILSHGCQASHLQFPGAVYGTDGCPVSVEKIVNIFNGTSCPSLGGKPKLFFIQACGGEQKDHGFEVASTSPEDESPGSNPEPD
T3 sequence (P55211 331-416 limits assumed): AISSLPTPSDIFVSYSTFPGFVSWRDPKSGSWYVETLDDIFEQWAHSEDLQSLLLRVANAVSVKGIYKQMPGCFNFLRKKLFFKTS
In words: Caspase-9 inhibitory effect (fluorescent substrate AcLEHD-AFC). The assay is classed as biochemical. Particulars: pH 7.5; 25° C., 150 μM AcLEHD-AFC, 200 nM caspase-9; read-out: Caspase-9 Kobs/[I] (converted). Here is the method:
as §1, with “The enzyme reaction was carried out at 25° C. with various concentrations of the inhibitors in a buffer solution containing 50 mM HEPES(pH 7.50), 10% (w/v) sucrose, 0.1% (w/v) CHAPS, 100 mM NaCl, 1 mM EDTA, and 10 mM DTT in the presence of 50 μM AcYVAD-AFC for 10 nM caspase-1, 50 μM AcDEVD-AFC for 2.1 nM caspase-8, and 150 μM AcLEHD-AFC for 200 nM caspase-9.” left out, “Kobs=−ln(1−At/Aoo)/t Equation 1” left out

T1 sequence (Q14790 217-374 limits assumed, species assumed): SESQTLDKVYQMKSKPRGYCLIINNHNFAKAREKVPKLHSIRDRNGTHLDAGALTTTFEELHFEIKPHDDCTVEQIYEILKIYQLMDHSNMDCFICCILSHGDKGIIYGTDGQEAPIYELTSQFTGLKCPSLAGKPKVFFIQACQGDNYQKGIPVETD
T1 sequence (Q14790 385-479 limits assumed, species assumed): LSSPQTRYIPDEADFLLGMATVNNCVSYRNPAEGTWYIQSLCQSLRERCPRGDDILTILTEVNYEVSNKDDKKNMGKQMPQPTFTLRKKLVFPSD

For the compound `CCC1(C(=O)N[C@@H](CC(=O)O)C(=O)COc2c(F)c(F)cc(F)c2F)CC(c2ccccc2)=NO1` (stereo partly drawn) [Icc, (3S)-3-{[(5-ethyl-3-phenyl-4,5-dihydro-5-isoxazolyl)carbonyl]amino}-4-oxo-5-(2,3,5,6-tetrafluorophenoxy)pentanoic acid], the kinact/KI on caspase-8 is 550 M⁻¹ s⁻¹; at caspase-1, 3170 M⁻¹ s⁻¹. The compound also returned a half-inhibitory concentration (IC50) in assay [1] of 22.5 µM.
For `CCC1(C(=O)N[C@@H](CC(=O)O)C(=O)COc2c(F)c(F)cc(F)c2F)CC(c2cccc3ccccc23)=NO1` (stereo partly drawn) [Idd, (3S)-3-({[5-ethyl-3-(1-naphthyl)-4,5-dihydro-5-isoxazolyl]carbonyl}amino)-4-oxo-5-(2,3,5,6-tetrafluorophenoxy)pentanoic Acid], in that order: 3170 M⁻¹ s⁻¹, 5170 M⁻¹ s⁻¹ and 4.25 µM.
For `CCC1(C(=O)NC(CC(=O)O)C(=O)CF)CC(c2nccc3ccccc23)=NO1` (centres unmarked) [Igg, 3-({[5-Ethyl-3-(1-isoquinolinyl)-4,5-dihydro-5-isoxazolyl]carbonyl}amino)-5-fluoro-4-oxopentanoic acid], the kinact/KI was 25000 M⁻¹ s⁻¹ on caspase-8, 5330 M⁻¹ s⁻¹ at caspase-9 and 45000 M⁻¹ s⁻¹ at caspase-1. This compound registered an IC50 in assay [1] of 0.17 µM.
Consider `CCC1(C(=O)N[C@@H](CC(=O)O)C(=O)COc2c(F)c(F)cc(F)c2F)CC(COc2cccc3ccccc23)=NO1` (stereo partly drawn) [Ipp, (3S)-3-[({5-Ethyl-3-[(1-naphthyloxy)methyl]-4,5-dihydro-5-isoxazolyl]carbonyl)amino]-4-oxo-5-(2,3,5,6-tetrafluorophenoxy)pentanoic acid], for which the kinact/KI on caspase-8 is 2830 M⁻¹ s⁻¹; at caspase-1, 38300 M⁻¹ s⁻¹. In assay [1], this compound yielded an IC50 of 3.5 µM.
On to `CCC1(C(=O)N[C@@H](CC(=O)O)C(=O)COc2c(F)c(F)cc(F)c2F)CC(COc2ccc(Cl)c3ccccc23)=NO1` (stereo partly drawn) [Iqq, (3S)-3-{[(3-{[(4-Chloro-1-naphthyl)oxy]methyl}-5-ethyl-4,5-dihydro-5-isoxazolyl)carbonyl]amino}-4-oxo-5-(2,3,5,6-tetrafluorophenoxy)pentanoic acid], for which the kinact/KI is 2330 M⁻¹ s⁻¹ at caspase-8 and 55000 M⁻¹ s⁻¹ at caspase-1. The IC50 in assay [1] is 37 µM.
Regarding `CCC1(C(=O)NC(CC(=O)O)C(=O)CF)CC(c2cnc3ccccc3c2)=NO1` (centres unmarked) [Iyy, 3-({[5-ethyl-3-(3-quinolinyl)-4,5-dihydro-5-isoxazolyl]carbonyl}amino)-5-fluoro-4-oxopentanoic acid], the kinact/KI at caspase-8 is 5170 M⁻¹ s⁻¹. The IC50 in assay [1] is 31.2 µM.
Taken in the same sequence, the figures for `CC(C)[C@@]1(C(=O)NC(CC(=O)O)C(=O)CF)CC(c2ccc3ccccc3n2)=NO1` (stereo partly drawn) [Izz, 5-Fluoro-3-({[(5R)-5-isopropyl-3-(2-quinolinyl)-4,5-dihydro-5-isoxazolyl]carbonyl}amino)-4-oxopentanoic Acid] were 7000 M⁻¹ s⁻¹ and 1.25 µM.

As usually defined, the IC50 is the concentration at which inhibition is half-maximal. A high value points to weaker potency.
